Measurements taken from patent US20230226084A1, “NON-INVASIVE METHOD OF TREATING COVID-19 INFECTION” (priority 2022, published 2023).

Test system: COVID-19 infection
Type: in vivo
Details: one subject
[1] = confirmed COVID-19, furosemide orally twice daily, 40 mg mornings and 20 mg at 6 hours interval, for 3 days

NS(=O)(=O)c1cc(C(=O)O)c(NCc2ccco2)cc1Cl [furosemide]
Subsidence of symptoms (cough, headache, body ache, fever, breathing difficulties) [1]: subsided on the second day
Total recovery of the subject [1]: totally recovered by night on the third day
Infection status per Government hospital certificate, a while after treatment (after furosemide orally for 3 days): negative status for the infection
